How the values were obtained:
[1] = biological target: T1, human FAAH (Fatty Acid Amide Hydrolase) (Homo sapiens (Human), UniProt O00519); assay: FAAH inhibition, human FAAH CHO whole cell format; type: cell-based
[2] = biological target: T1, human FAAH (Fatty Acid Amide Hydrolase); assay: FAAH inhibition, human FAAH CHO cell lysate (AAMCA fluorescence); type: biochemical
Source text: To assist in assay development stable cell lines for human, murine and rat full length FAAH were developed. […] The full length FAAH was subcloned into the mammalian expression vector, pcDEF.neo, using XbaI and EcoRI restriction sites and used for stable cell line generation.
The full length murine FAAH was subcloned into the mammalian expression vector, pcDEFneo using either EcoRI (murine) or KpnI and EcoRI (rat) restriction sites. Chinese hamster ovary cells (CHO) were transfected following manufacturers protocol (AMAXA). Forty eight hours post transfection, cells were trypsinized and transferred to 96 well plates in Iscove's DMEM media supplemented with 2 mM Glutamine, 10% fetal calf serum, 1 mg/ml geneticin and HT Supplement (0.1 mM sodium hypoxanthine, 0.016 mM thymidine) in order to isolate single clones. […] Following removal of tissue culture media cells were dislodged following addition of Cellstripper (Mediatech, Inc. Manassas, Va.) and transferred to 96 well black clear bottom assay plate, centrifuged at 1,000 rpm for 3 mins and media removed and replaced with assay buffer (50 mM Tris pH8.0, 1 mM EDTA, 0.1% fatty acid free BSA). The reaction was initiated by addition of fluorescent substrate, AMC Arachidonoyl Amide (Cayman Chemical, Ann Arbor, Mich.) to 1 μM and reaction allowed to proceed for 2 hours at room temperature. Release of fluorescence was monitored in a CytoFluor Multiplate Reader.
CHO cells expressing FAAH were used to prepare either crude cell lysate or microsome fractions. To harvest cells, tissue culture media was decanted, the monolayer washed three times with Ca^++Mg^++ free PBS and cells recovered after 15 min in enzyme free dissociation media (Millipore Corp, Billerica, Mass.). Cells were collected by centrifuging at 2000 rpm for 15 min, and the cell pellet re-suspended with 50 mM HEPES (pH 7.4) containing 1 mM EDTA and the protease inhibitors aprotinin (1 mg/ml) and leupeptin (100 μM). The suspension was sonicated at 4° C. and the cell lysate recovered after centrifuging at 12,000×g (14,600 rpm, SS34 rotor) for 20 min at 4° C. to form a crude pellet of cell debris, nuclei, peroxisomes, lysosomes, and mitochondria; the supernatant or cell lysate was used for FAAH enzyme assay. In some eases, microsomes fractions enriched in FAAH were prepared by centrifuging the cell lysate further at 27,000 rpm (100,000×g) in SW28 rotor for 50 minutes at 4° C. The pellet containing FAAH-enriched microsomes was re-suspend in 50 mM HEPES, (pH 7.4) 1 mM EDTA, and any remaining DNA sheared by passage of material through a 23 gauge needle and aliquots of enzyme were store at −80° C. prior to use.
Assays are performed on either cell lysate or microsome fractions prepared as described or in whole cell format employing either the fluorescent substrate AAMCA (Cayman chemical, Ann Arbor, Mich.,) or ^3H-anandamide ([ETHANOLAMINE-1-3H] American Radiolabeled Chemicals; 1 mCi/ml). […] AAMCA substrate was used to achieve a final concentration of 1 μM and reaction allowed to proceed at room temperature for 1-3 hours. […] Whole cell assay is conducted with cells harvested after rinsing tissue culture flasks three times with Ca^++Mg^++ free PBS, incubating for 10 min in Enzyme free dissociation media and centrifuging for 5 minutes at 1,000 rpm in table top centrifuge. Cells are resuspended in assay buffer at desired cell number in (4×10^4 cells/assay in 96-well format; 1×10^4 cells/assay in 384-well format) and assayed as described.
Alternatively, assays are performed using anandamide [ethanolamine 1-^3H] (specific activity of 10 Ci/mmol) diluted with cold anandamide to achieve a final assay concentration of 1 μM anandamide (˜50,000 cpm). Enzyme (CHO cell lysate, brain or liver homogenate) is incubated in assay buffer (50 mM Phosphate, pH 8.0, 1 mM EDTA, 200 mM KCl, 0.2% glycerol, 0.1% fatty acid free BSA) with inhibitor at 25° C. for 30 minutes.

T1 sequence (O00519 whole entry): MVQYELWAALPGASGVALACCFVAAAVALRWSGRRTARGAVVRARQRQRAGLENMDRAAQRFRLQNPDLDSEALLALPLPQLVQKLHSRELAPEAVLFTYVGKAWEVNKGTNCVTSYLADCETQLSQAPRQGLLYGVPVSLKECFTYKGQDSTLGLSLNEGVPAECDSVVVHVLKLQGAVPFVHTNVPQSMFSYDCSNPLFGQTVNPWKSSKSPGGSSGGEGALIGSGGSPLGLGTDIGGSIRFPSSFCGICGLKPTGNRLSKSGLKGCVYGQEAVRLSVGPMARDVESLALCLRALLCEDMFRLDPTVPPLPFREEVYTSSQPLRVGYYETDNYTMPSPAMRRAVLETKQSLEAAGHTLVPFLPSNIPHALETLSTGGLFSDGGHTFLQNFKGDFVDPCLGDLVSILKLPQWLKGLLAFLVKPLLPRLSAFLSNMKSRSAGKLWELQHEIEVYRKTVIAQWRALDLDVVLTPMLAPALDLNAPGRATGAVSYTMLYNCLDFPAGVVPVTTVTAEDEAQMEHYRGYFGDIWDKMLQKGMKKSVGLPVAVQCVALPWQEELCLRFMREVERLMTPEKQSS

`C[S+]([O-])c1ccc(-c2nc(C3=CCOCC3)oc2Sc2ccc(Cl)cc2)cc1` (centres unmarked) [Example C6.3, 5-[(4-chlorophenyl)sulfanyl]-2-(3,6-dihydro-2H-pyran-4-yl)-4-[4-(methylsulfinyl)phenyl]-1,3-oxazole] showed an IC50 [1] of 31 nM and an IC50 [2] of 15.9 nM.

Source: US9193697B2, “Oxazole derivatives useful as modulators of FAAH” (MERCK SHARP & DOHME CORP., priority 2010, dated 2015)
